Data reported in ChEMBL document CHEMBL4041485, “Bissubvilides A and B, Cembrane-Capnosane Heterodimers from the Soft Coral Sarcophyton subviride” (J Nat Prod, 2016).
Counter-ions that a name gives are not always drawn.

Columns and labels:
Assay type in all cases: functional, cell-based
[1] = test system: A549; experiment: Cytotoxicity against human A549 cells by MTT assay
[2] = test system: MG-63; experiment: Cytotoxicity against human MG63 cells by MTT assay
[3] = test system: Huh-7; experiment: Cytotoxicity against human HuH7 cells by CCK-8 assay

Row | SMILES | IC50 [1] | IC50 [2] | IC50 [3]
1 | COc1cccc2c1C(=O)c1c(O)c3c(c(O)c1C2=O)C[C@@](O)(C(=O)CO)C[C@@H]3O[C@H]1C[C@H](N)[C@H](O)[C@H](C)O1 [DOXORUBICIN HYDROCHLORIDE] | 2.9 µM | 2.2 µM | 14.8 µM
2 | CC1=C2CCC3=CCC[C@@](C)(OC3=O)[C@@H](O)CC/C(C)=C/[C@@H]2[C@@]23CC/C(C(C)C)=C\[C@H]4[C@@](C)(O)CC[C@]4(O)[C@@](C)(CC[C@@H]2C1)OC3=O | > 25 µM | > 30 µM | > 50 µM
3 | C=C(C)/C1=C/[C@H]2[C@@](C)(O)CC[C@]2(O)[C@@]2(C)CC[C@@H]3CC(C)=C4CCC5=CCC[C@@](C)(OC5=O)[C@@H](O)CC/C(C)=C/[C@@H]4[C@]3(CC1)C(=O)O2 | > 25 µM | > 30 µM | > 50 µM
